Results: patent US20060228297A1, “Thorium-227 for use in radiotherapy of soft tissue disease” (priority 2003, published 2006)

Test system: patients with metastases to the skeleton from breast or prostate cancer
Test: Phase IA/IB trials of ^223Ra, single and repeated injection, safety and tolerance (Example 9)
Type: in vivo, humans
Procedure: The experiment of Example 8 was carried out with dose metering calibrated to a high accuracy. Dose levels measured at 46, 93, 163, 213, and 250 kBq/kg of ^223Ra were given as single doses and a multiple-dose schedule was also introduced.
Thirty-one patients with metastases to the skeleton, 10 from breast- and 21 from prostate cancer, all, were enrolled in phase IA and phase IB trials. The prostate cancer patients were from 60 to 85 years and had body weights ranging from 50 to 120 kg. All of them had progressive disease considered hormone refractory. The breast cancer patients were from 40 to 70 years, with bodyweight from 50 to 95 kg. All of them were progressing second hormonal and/or chemotherapy. The primary objective was to evaluate the safety and tolerance of ^223Ra.
The follow up period was 8 weeks.
In the single injection trial the following average dose levels were used; 46, 93, 163, 213, and 250-kBq kg^−1 bodyweight (b.w.). Five patients were included at each dose level. Fifteen prostate- and 10 breast cancer patients were included.
In the repeated injection schedule, 6 patients, all with prostate cancer, were included. Three patients were scheduled to receive 5 doses, each of 50 kBq kg^−1 b.w. at three-weeks intervals, and three patients to receive 2 doses, each of 125 kBq kg−1 b.w. at six-weeks intervals.
Radium-223 was produced from ^227Ac/^227Th and purified using Ac-resin to immobilize ^227Ac and ^227Th as described in WO0040275. The product concentrate, i.e., dissolved ^223RaCl2 was tested for radionuclide purity by gamma spectroscopy before further use. A concentrate of the ^223Ra in NaCl and Na Citrate was sent sterile production. Isotonicity, pH, and activity concentration were adjusted; a sample kept aside for pathogen and pyrogen testing, and the final product was filled in sterile vials that were subsequently capped with a sealed rubber membrane penetrable to syringes. The vials were put into lead containers and shipped to the hospitals.
The effect of the radium-223 on neutrophil cell fractions, platelets, white-blood-cell count and Heamoglobin were monitored to give a wide ranging measure of haematological toxicity. […] The results were expressed as the number of patients in the study showing a particular level of toxicity on the CTC Toxicity Grade scale and are set out in Table 6 below.

[1] = Multiple dosing 2 × 125 kBq/kg, n = 3
[2] = Multiple dosing 5 × 50 kBq/kg, n = 3

[223Ra] [^223Ra, radium-223]
Haemoglobin, CTC Grade 0: number of patients [1]: 0
Haemoglobin, CTC Grade 1: number of patients [1]: 1
Haemoglobin, CTC Grade 2: number of patients [1]: 2
Neutrophile, CTC Grade 0: number of patients [1]: 3
Neutrophile, CTC Grade 1: number of patients [1]: 0
Neutrophile, CTC Grade 2: number of patients [1]: 0
Neutrophile, CTC Grade 3: number of patients [1]: 0
Platelets, CTC Grade 0: number of patients [1]: 3
Platelets, CTC Grade 1: number of patients [1]: 0
W B C, CTC Grade 0: number of patients [1]: 2
W B C, CTC Grade 1: number of patients [1]: 0
W B C, CTC Grade 2: number of patients [1]: 1
W B C, CTC Grade 3: number of patients [1]: 0
Haemoglobin, CTC Grade 0: number of patients [2]: 0
Haemoglobin, CTC Grade 1: number of patients [2]: 2
Haemoglobin, CTC Grade 2: number of patients [2]: 1
Neutrophile, CTC Grade 0: number of patients [2]: 1
Neutrophile, CTC Grade 1: number of patients [2]: 0
Neutrophile, CTC Grade 2: number of patients [2]: 2
Neutrophile, CTC Grade 3: number of patients [2]: 0
Platelets, CTC Grade 0: number of patients [2]: 2
Platelets, CTC Grade 1: number of patients [2]: 1
W B C, CTC Grade 0: number of patients [2]: 1
W B C, CTC Grade 1: number of patients [2]: 0
W B C, CTC Grade 2: number of patients [2]: 2
W B C, CTC Grade 3: number of patients [2]: 0
Haemoglobin, CTC Grade 0: number of patients (Re-treatment, n = 2): 1
Haemoglobin, CTC Grade 1: number of patients (Re-treatment, n = 2): 1
Haemoglobin, CTC Grade 2: number of patients (Re-treatment, n = 2): 0
Neutrophile, CTC Grade 0: number of patients (Re-treatment, n = 2): 2
Neutrophile, CTC Grade 1: number of patients (Re-treatment, n = 2): 0
Neutrophile, CTC Grade 2: number of patients (Re-treatment, n = 2): 0
Neutrophile, CTC Grade 3: number of patients (Re-treatment, n = 2): 0
Platelets, CTC Grade 0: number of patients (Re-treatment, n = 2): 2
Platelets, CTC Grade 1: number of patients (Re-treatment, n = 2): 0
W B C, CTC Grade 0: number of patients (Re-treatment, n = 2): 2
W B C, CTC Grade 1: number of patients (Re-treatment, n = 2): 0
W B C, CTC Grade 2: number of patients (Re-treatment, n = 2): 0
W B C, CTC Grade 3: number of patients (Re-treatment, n = 2): 0
Haemoglobin, CTC Grade 0: number of patients (Single dose 46 kBq/kg, n = 5): 4
Haemoglobin, CTC Grade 1: number of patients (Single dose 46 kBq/kg, n = 5): 0
Haemoglobin, CTC Grade 2: number of patients (Single dose 46 kBq/kg, n = 5): 1
Neutrophile, CTC Grade 0: number of patients (Single dose 46 kBq/kg, n = 5): 4
Neutrophile, CTC Grade 1: number of patients (Single dose 46 kBq/kg, n = 5): 0
Neutrophile, CTC Grade 2: number of patients (Single dose 46 kBq/kg, n = 5): 1
Neutrophile, CTC Grade 3: number of patients (Single dose 46 kBq/kg, n = 5): 0
Platelets, CTC Grade 0: number of patients (Single dose 46 kBq/kg, n = 5): 5
Platelets, CTC Grade 1: number of patients (Single dose 46 kBq/kg, n = 5): 0
W B C, CTC Grade 0: number of patients (Single dose 46 kBq/kg, n = 5): 4
W B C, CTC Grade 1: number of patients (Single dose 46 kBq/kg, n = 5): 0
W B C, CTC Grade 2: number of patients (Single dose 46 kBq/kg, n = 5): 1
W B C, CTC Grade 3: number of patients (Single dose 46 kBq/kg, n = 5): 0
Haemoglobin, CTC Grade 0: number of patients (Single dose 93 kBq/kg, n = 5): 2
Haemoglobin, CTC Grade 1: number of patients (Single dose 93 kBq/kg, n = 5): 2
Haemoglobin, CTC Grade 2: number of patients (Single dose 93 kBq/kg, n = 5): 1
Neutrophile, CTC Grade 0: number of patients (Single dose 93 kBq/kg, n = 5): 3
Neutrophile, CTC Grade 1: number of patients (Single dose 93 kBq/kg, n = 5): 1
Neutrophile, CTC Grade 2: number of patients (Single dose 93 kBq/kg, n = 5): 1
Neutrophile, CTC Grade 3: number of patients (Single dose 93 kBq/kg, n = 5): 0
Platelets, CTC Grade 0: number of patients (Single dose 93 kBq/kg, n = 5): 5
Platelets, CTC Grade 1: number of patients (Single dose 93 kBq/kg, n = 5): 0
W B C, CTC Grade 0: number of patients (Single dose 93 kBq/kg, n = 5): 4
W B C, CTC Grade 1: number of patients (Single dose 93 kBq/kg, n = 5): 0
W B C, CTC Grade 2: number of patients (Single dose 93 kBq/kg, n = 5): 1
W B C, CTC Grade 3: number of patients (Single dose 93 kBq/kg, n = 5): 0
Haemoglobin, CTC Grade 0: number of patients (Single dose 163 kBq/kg, n = 5): 4
Haemoglobin, CTC Grade 1: number of patients (Single dose 163 kBq/kg, n = 5): 0
Haemoglobin, CTC Grade 2: number of patients (Single dose 163 kBq/kg, n = 5): 1
Neutrophile, CTC Grade 0: number of patients (Single dose 163 kBq/kg, n = 5): 3
Neutrophile, CTC Grade 1: number of patients (Single dose 163 kBq/kg, n = 5): 0
Neutrophile, CTC Grade 2: number of patients (Single dose 163 kBq/kg, n = 5): 1
Neutrophile, CTC Grade 3: number of patients (Single dose 163 kBq/kg, n = 5): 1
Platelets, CTC Grade 0: number of patients (Single dose 163 kBq/kg, n = 5): 4
Platelets, CTC Grade 1: number of patients (Single dose 163 kBq/kg, n = 5): 1
W B C, CTC Grade 0: number of patients (Single dose 163 kBq/kg, n = 5): 3
W B C, CTC Grade 1: number of patients (Single dose 163 kBq/kg, n = 5): 0
W B C, CTC Grade 2: number of patients (Single dose 163 kBq/kg, n = 5): 1
W B C, CTC Grade 3: number of patients (Single dose 163 kBq/kg, n = 5): 1
Haemoglobin, CTC Grade 0: number of patients (Single dose 213 kBq/kg, n = 5): 2
Haemoglobin, CTC Grade 1: number of patients (Single dose 213 kBq/kg, n = 5): 2
Haemoglobin, CTC Grade 2: number of patients (Single dose 213 kBq/kg, n = 5): 1
Neutrophile, CTC Grade 0: number of patients (Single dose 213 kBq/kg, n = 5): 2
Neutrophile, CTC Grade 1: number of patients (Single dose 213 kBq/kg, n = 5): 1
Neutrophile, CTC Grade 2: number of patients (Single dose 213 kBq/kg, n = 5): 2
Neutrophile, CTC Grade 3: number of patients (Single dose 213 kBq/kg, n = 5): 0
Platelets, CTC Grade 0: number of patients (Single dose 213 kBq/kg, n = 5): 5
Platelets, CTC Grade 1: number of patients (Single dose 213 kBq/kg, n = 5): 0
W B C, CTC Grade 0: number of patients (Single dose 213 kBq/kg, n = 5): 2
W B C, CTC Grade 1: number of patients (Single dose 213 kBq/kg, n = 5): 0
W B C, CTC Grade 2: number of patients (Single dose 213 kBq/kg, n = 5): 2
W B C, CTC Grade 3: number of patients (Single dose 213 kBq/kg, n = 5): 1
Haemoglobin, CTC Grade 0: number of patients (Single dose 250 kBq/kg, n = 5): 2
Haemoglobin, CTC Grade 1: number of patients (Single dose 250 kBq/kg, n = 5): 3
Haemoglobin, CTC Grade 2: number of patients (Single dose 250 kBq/kg, n = 5): 0
Neutrophile, CTC Grade 0: number of patients (Single dose 250 kBq/kg, n = 5): 2
Neutrophile, CTC Grade 1: number of patients (Single dose 250 kBq/kg, n = 5): 0
Neutrophile, CTC Grade 2: number of patients (Single dose 250 kBq/kg, n = 5): 2
Neutrophile, CTC Grade 3: number of patients (Single dose 250 kBq/kg, n = 5): 1
Platelets, CTC Grade 0: number of patients (Single dose 250 kBq/kg, n = 5): 2
Platelets, CTC Grade 1: number of patients (Single dose 250 kBq/kg, n = 5): 3
W B C, CTC Grade 0: number of patients (Single dose 250 kBq/kg, n = 5): 2
W B C, CTC Grade 1: number of patients (Single dose 250 kBq/kg, n = 5): 0
W B C, CTC Grade 2: number of patients (Single dose 250 kBq/kg, n = 5): 2
W B C, CTC Grade 3: number of patients (Single dose 250 kBq/kg, n = 5): 1
Reversible diarrhoea, grades 1 and 2, share of patients (all dose groups, total): approximately 50%
Dose-limiting toxicity (dose escalating part, single dose 46 to 250 kBq/kg): not observed
Thrombocytes, toxicity grade (even at the two highest dose levels): 1 grade
Vomiting, number of patients (highest dose group): four
Nausea, number of patients (highest dose level): four
Neutropenia of maximum grade 3, number of patients (single injection trial): two
Reversible myelosuppression, nadir after injection (single injection, recovery during the follow-up period): 2-3 weeks
Additional toxicity related to the repetition of the treatment (three patients in the 50×5 schedule): did not experience any additional toxicity
